Patent US20260001928A1 (CORTERIA PHARMACEUTICALS, priority 2022, published 2026)
One block for each compound: values may come before it. *1 amine or outer side, *2 acyl side, *3 side chain or, on linkers, in order; H or OH if unused. Where a SMILES comes first, the peptide text is derived from it. Side-chain parts run from the residue outwards. [ ]: non-standard residue; d: D form. The star is where a group is joined. C20 diacid = O=C(O)CCCCCCCCCCCCCCCCCCC(=O)*; C18 diacid = O=C(O)CCCCCCCCCCCCCCCCC(=O)*; C16 diacid = O=C(O)CCCCCCCCCCCCCCC(=O)*; γGlu = O=C(O)[C@H](CCC(=O)[*:2])N[*:1]; AEEA = NCCOCCOCC(=O)O; Aib = CC(C)(N)C(=O)O

Columns and labels:
[1] = Pharmacokinetics in male Sprague Dawley rats after subcutaneous administration; assay type: in vivo; details: plasma, rat
[2] = In vitro subcutaneous tissue supernatant (SCts) stability and metabolite identification, rat; assay type: in vitro ADME; design: remaining at 2 h: dose or concentration left out as unconfirmed; details: male, Sprague Dawley; rat subcutaneous tissue supernatant (SCts), 37° C, 2 h
Protocol: In vitro metabolic stability in subcutaneous tissue supernatant (SCts) was studied in male Sprague Dawley rats. Test compounds were incubated […] for 2 hours at 37° C.
Software aided in vitro metabolite identification on SCts stability samples was performed using either Metabolite Pilot (Sciex) or Biopharma Finder (Thermo). In addition, metabolite identification using Metabolite Pilot was performed on plasma samples of Comp Y following SC administration to rat at 1 mg/kg.

CFR1R receptor = biological target: T1, CFR1R receptor (Homo sapiens, UniProt P34998); experiment: Activity at anti-target CFR1R receptor, cAMP assay in CRF1R-overexpression CHO-K1 cells; assay type: cell-based; details: 100% = Sauvagine at 100 nM
T1 construct: host or cells: CHO-K1 (clone 2)
T1 sequence (P34998 24-415): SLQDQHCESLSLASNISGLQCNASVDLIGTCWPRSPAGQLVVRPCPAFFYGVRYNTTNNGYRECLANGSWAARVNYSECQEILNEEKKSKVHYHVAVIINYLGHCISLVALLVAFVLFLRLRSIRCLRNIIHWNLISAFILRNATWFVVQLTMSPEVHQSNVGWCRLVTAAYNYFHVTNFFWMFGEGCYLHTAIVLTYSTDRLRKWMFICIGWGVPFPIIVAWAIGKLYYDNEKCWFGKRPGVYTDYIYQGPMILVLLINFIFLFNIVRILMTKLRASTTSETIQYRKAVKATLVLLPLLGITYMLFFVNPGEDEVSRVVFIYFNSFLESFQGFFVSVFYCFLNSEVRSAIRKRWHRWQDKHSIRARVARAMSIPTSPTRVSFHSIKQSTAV
Outline: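 Run as for the TeloHAEC line, except the full-activation control well received Sauvagine (100 nM) and final density was 4000 cells/well. Cells from clone 2 came from frozen aliquots of near-confluent cultures.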

human CRF2a receptor = biological target: T2, human CRF2a receptor (Homo sapiens, UniProt Q13324); experiment: Activity at human CRF2a receptor, cAMP functional assay in TeloHEAC cells; assay type: cell-based; details: TeloHEAC cells stably expressing human CRF2a receptor, relative to urocortin 2 (100 nM = 100%)
T2 construct: expressed in transfected cells; host or cells: TeloHEAC cells
T2 sequence (Q13324 1-411): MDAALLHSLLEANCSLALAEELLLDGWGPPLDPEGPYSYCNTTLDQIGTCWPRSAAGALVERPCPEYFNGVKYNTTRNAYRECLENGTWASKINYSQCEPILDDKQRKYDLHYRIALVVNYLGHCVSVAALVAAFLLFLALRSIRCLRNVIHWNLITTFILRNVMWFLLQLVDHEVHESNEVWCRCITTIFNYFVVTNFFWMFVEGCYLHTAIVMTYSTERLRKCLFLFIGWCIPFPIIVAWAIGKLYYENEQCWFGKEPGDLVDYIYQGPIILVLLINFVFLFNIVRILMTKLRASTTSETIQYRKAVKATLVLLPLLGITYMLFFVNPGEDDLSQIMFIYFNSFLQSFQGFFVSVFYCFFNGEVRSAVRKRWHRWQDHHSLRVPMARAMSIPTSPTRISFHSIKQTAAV
Outline: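 TeloHEAC cells stably expressing human CRF2a (10000 cells/well) were treated with 16-point 1:2 compound dilutions in HBSS/20 mM HEPES with IBMX for 30 min at 37° C. cAMP was read by HTRF (665/620 nm ratio). EC50 was the concentration giving 50% activation, with 100 nM urocortin 2 set as 100%.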

[3] = Pharmacokinetics in male Sprague Dawley rats after subcutaneous administration; assay type: in vivo; details: plasma, rat, SC, 0.05 mg/kg
Protocol: The pharmacokinetics of UCN-2 derivatives was studied in male Sprague Dawley rats after subcutaneous administration (SC) at 0.05, 0.1, 0.3 or 1 mg/kg. Peptides were formulated as a solution in 10 mM phosphate pH 7.4 buffer+glycerol 85% (2.3% v/v)). […] The supernatant (200 μL) was analyzed by LC-MSMS. Pharmacokinetic parameters were calculated using established non-compartmental methods. The area under the plasma concentration curve versus time (AUC) was determined using Watson LIMS (version 7.6), with linear trapezoidal interpolation in the ascending slope and logarithmic trapezoidal interpolation in the descending slope. The portion of the AUC from the last measurable concentration to infinity was estimated from the equation, Ct/kel, where Ct represents the last measurable concentration and kel is the elimination rate constant. The latter was determined from the concentration curve versus time by linear regression at the terminal phase of the semi-logarithmic plot.

[4] = Chemical stability in buffer (pH 7.4 / pH 4.5), % purity loss; assay type: physicochemical; details: 100 mM phosphate buffer pH 7.4; 40° C. vs 5° C.; 14 or 28 days
Outline: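 Compounds dissolved at 10 mg/mL target in 100 mM phosphate (pH 7.4) or 100 mM acetate (pH 4.5) buffer for 1 h at room temperature, then centrifuged. Diluted supernatant stored at 5 °C or 40 °C for 14 or 28 days; % purity loss by LC-UV.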

AUC(0-t) ([1]; IV, 0.1 mg/kg): 2760 ng·h/mL
half-life ([1]; IV, 0.1 mg/kg): 4.3 h
AUC(0-t) ([1]; SC, 1.0 mg/kg): 14500 ng·h/mL
Cmax ([1]; SC, 1.0 mg/kg): 1040 ng/mL
Tmax ([1]; SC, 1.0 mg/kg): 2 h
half-life ([1]; SC, 1.0 mg/kg): 4 h
Structure (SMILES): CC[C@H](C)[C@H](N)C(=O)N[C@H](C(=O)N[C@@H](CC(C)C)C(=O)N[C@@H](CO)C(=O)N[C@@H](CC(C)C)C(=O)N[C@@H](CC(=O)O)C(=O)N[C@H](C(=O)N1CCC[C@H]1C(=O)N[C@H](C(=O)N[C@@H](CCCCN)C(=O)N[C@@H](CC(C)C)C(=O)N[C@@H](CCCCNC(=O)COCCOCCNC(=O)COCCOCCNC(=O)CC[C@H](NC(=O)CCCCCCCCCCCCCCCCC(=O)O)C(=O)O)C(=O)N[C@@H](CCCCN)C(=O)N[C@H](C(=O)N[C@@H](CC(C)C)C(=O)N[C@@H](CC(C)C)C(=O)N[C@@H](CCC(=O)O)C(=O)N[C@@H](CCC(N)=O)C(=O)N[C@@H](CCC(=O)O)C(=O)N[C@@H](CCCCN)C(=O)N[C@@H](CCC(N)=O)C(=O)N[C@@H](CCCCN)C(=O)N[C@@H](CCCCN)C(=O)N[C@@H](CCC(N)=O)C(=O)N[C@@H](CCCNC(=N)N)C(=O)N[C@@H](CCC(=O)O)C(=O)N[C@@H](CCC(N)=O)C(=O)N[C@@H](C)C(=O)N[C@@H](CCC(=O)O)C(=O)N[C@H](C(=O)N[C@@H](CC(N)=O)C(=O)N[C@@H](CCCCN)C(=O)N[C@@H](CCC(N)=O)C(=O)N[C@H](C(=O)N[C@@H](CC(C)C)C(=O)N[C@@H](C)C(=O)N[C@@H](CCC(N)=O)C(=O)N[C@H](C(N)=O)C(C)C)[C@@H](C)CC)[C@@H](C)O)[C@@H](C)CC)[C@@H](C)CC)C(C)C)C(C)C [149 (Comp Y)] (H-IVLSLDVPIKLK([AEEA-AEEA-γGlu-C18 diacid])KILLEQEKQKKQREQAETNKQILAQV-NH2)

remaining at 2 h [2]: 4%
Structure (SMILES): CC[C@H](C)[C@H](N)C(=O)N[C@H](C(=O)N[C@@H](CC(C)C)C(=O)N[C@@H](CO)C(=O)N[C@@H](CC(C)C)C(=O)N[C@@H](CC(=O)O)C(=O)N[C@H](C(=O)N1CCC[C@H]1C(=O)N[C@H](C(=O)N[C@@H](CCCCN)C(=O)N[C@@H](CC(C)C)C(=O)N[C@@H](CCCCNC(=O)COCCOCCNC(=O)COCCOCCNC(=O)CC[C@H](NC(=O)CCCCCCCCCCCCCCCCC(=O)O)C(=O)O)C(=O)N[C@@H](CCCCN)C(=O)N[C@H](C(=O)N[C@@H](CC(C)C)C(=O)N[C@@H](CC(C)C)C(=O)N[C@@H](CCC(=O)O)C(=O)N[C@@H](CCC(N)=O)C(=O)N[C@@H](CCC(=O)O)C(=O)N[C@@H](CCCCN)C(=O)N[C@@H](CCC(N)=O)C(=O)N[C@@H](CCCCN)C(=O)N[C@@H](CCCCN)C(=O)N[C@@H](CCC(N)=O)C(=O)N[C@@H](CCCNC(=N)N)C(=O)N[C@@H](CCC(=O)O)C(=O)N[C@@H](CCC(N)=O)C(=O)N[C@@H](C)C(=O)N[C@@H](CCC(=O)O)C(=O)N[C@H](C(=O)N[C@@H](CC(N)=O)C(=O)N[C@@H](CCCCN)C(=O)N[C@@H](CCC(N)=O)C(=O)N[C@H](C(=O)N[C@@H](CC(C)C)C(=O)N[C@@H](C)C(=O)N[C@@H](CCC(N)=O)C(=O)N[C@H](C(N)=O)C(C)C)[C@@H](C)CC)[C@@H](C)O)[C@@H](C)CC)[C@@H](C)CC)C(C)C)C(C)C [149 (CompY)] (H-IVLSLDVPIKLK([AEEA-AEEA-γGlu-C18 diacid])KILLEQEKQKKQREQAETNKQILAQV-NH2)

remaining at 2 h [2]: 0%
Structure (SMILES): CC[C@H](C)[C@H](N)C(=O)N[C@H](C(=O)N[C@@H](CC(C)C)C(=O)N[C@@H](CO)C(=O)N[C@@H](CC(C)C)C(=O)N[C@@H](CC(=O)O)C(=O)N[C@H](C(=O)N1CCC[C@H]1C(=O)N[C@H](C(=O)N[C@@H](CCCCN)C(=O)N[C@@H](CC(C)C)C(=O)N[C@@H](CCCCNC(=O)CC[C@H](NC(=O)CCCCCCCCCCCCCCC(=O)O)C(=O)O)C(=O)N[C@@H](CCC(N)=O)C(=O)N[C@H](C(=O)N[C@@H](CC(C)C)C(=O)N[C@@H](CC(C)C)C(=O)N[C@@H](CCCCN)C(=O)N[C@@H](CCC(N)=O)C(=O)N[C@@H](CCC(=O)O)C(=O)N[C@@H](CCCNC(=N)N)C(=O)N[C@@H](CCC(N)=O)C(=O)N[C@@H](CCCCN)C(=O)N[C@@H](CCCCN)C(=O)N[C@@H](CCC(N)=O)C(=O)N[C@@H](CCCNC(=N)N)C(=O)N[C@@H](CCC(=O)O)C(=O)N[C@@H](CCC(N)=O)C(=O)N[C@@H](C)C(=O)N[C@@H](CCC(=O)O)C(=O)N[C@@H](CCCCN)C(=O)N[C@@H](CC(N)=O)C(=O)N[C@@H](CCCCN)C(=O)N[C@@H](CCC(N)=O)C(=O)N[C@H](C(=O)N[C@@H](CC(C)C)C(=O)N[C@@H](CCC(=O)O)C(=O)N[C@@H](CCC(N)=O)C(=O)N[C@H](C(N)=O)C(C)C)[C@@H](C)CC)[C@@H](C)CC)[C@@H](C)CC)C(C)C)C(C)C [151 (CompX)] (H-IVLSLDVPIKLK([γGlu-C16 diacid])QILLKQERQKKQREQAEKNKQILEQV-NH2)

Emax (% I) (CFR1R receptor): 41 % I
EC50 (human CRF2a receptor): 0.11 nM
AUC(0-t) [3]: 4680 ng·h/mL
Cmax [3]: 154 ng/mL
Tmax [3]: 14 h
half-life [3]: 8 h
AUC(0-t) ([1]; IV, 0.025 mg/kg): 4840 ng·h/mL
half-life ([1]; IV, 0.025 mg/kg): 8 h
Buffer stability pH 7.4 % purity loss [4]: 0.3/Not Tested %
Structure (SMILES): CC[C@H](C)[C@H](NC(C)=O)C(=O)N[C@H](C(=O)N[C@@H](CC(C)C)C(=O)N[C@@H](CO)C(=O)N[C@@H](CC(C)C)C(=O)N[C@@H](CC(=O)O)C(=O)N[C@@H](C(=O)N1CCC[C@H]1C(=O)N[C@H](C(=O)N[C@@H](CCCCN)C(=O)N[C@@H](CC(C)C)C(=O)N[C@@H](CCCCNC(=O)CC[C@H](NC(=O)CCCCCCCCCCCCCCCCCCC(=O)O)C(=O)O)C(=O)N[C@@H](CCCCN)C(=O)N[C@H](C(=O)N[C@@H](CC(C)C)C(=O)N[C@@H](CC(C)C)C(=O)N[C@@H](CCC(=O)O)C(=O)N[C@@H](CCC(N)=O)C(=O)N[C@@H](CCC(=O)O)C(=O)N[C@@H](CCCCN)C(=O)N[C@@H](CCC(N)=O)C(=O)N[C@@H](CCCCN)C(=O)N[C@@H](C)C(=O)N[C@@H](CCC(N)=O)C(=O)N[C@@H](CCCNC(=N)N)C(=O)N[C@@H](CCC(=O)O)C(=O)N[C@@H](CCC(N)=O)C(=O)N[C@@H](C)C(=O)N[C@@H](CCC(=O)O)C(=O)N[C@H](C(=O)N[C@@H](CC(N)=O)C(=O)NC(C)(C)C(=O)N[C@@H](CCC(N)=O)C(=O)N[C@H](C(=O)N[C@@H](CC(C)C)C(=O)N[C@@H](C)C(=O)N[C@@H](CCC(N)=O)C(=O)N[C@H](C(N)=O)C(C)C)[C@@H](C)CC)[C@@H](C)O)[C@@H](C)CC)[C@@H](C)CC)C(C)C)C(C)C [compound 212] (Ac-IVLSLD[dV]PIKLK([γGlu-C20 diacid])KILLEQEKQKAQREQAETN[Aib]QILAQV-NH2)
